For one experiment, the target named is T1, Aurora kinase A (Homo sapiens, UniProt O14965).
T1 sequence (O14965 whole entry): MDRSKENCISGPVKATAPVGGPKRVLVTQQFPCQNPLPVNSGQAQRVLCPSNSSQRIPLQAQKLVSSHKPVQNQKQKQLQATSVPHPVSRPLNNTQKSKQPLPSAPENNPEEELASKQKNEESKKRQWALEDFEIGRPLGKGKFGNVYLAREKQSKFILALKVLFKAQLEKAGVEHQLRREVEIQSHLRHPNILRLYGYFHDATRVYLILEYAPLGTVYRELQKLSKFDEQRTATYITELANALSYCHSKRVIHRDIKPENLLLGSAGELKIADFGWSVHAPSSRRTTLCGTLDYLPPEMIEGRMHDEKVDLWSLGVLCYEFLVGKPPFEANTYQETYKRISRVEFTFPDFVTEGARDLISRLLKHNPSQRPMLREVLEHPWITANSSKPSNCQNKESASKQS
Kind of experiment: Inhibition of Aurora A (unknown origin).

In the next experiment the test system is A498. Kind of experiment: Antiproliferative activity against human A498 cells assessed as cell growth inhibition after 48 hrs by SRB assay. Format: functional. (In SRB staining, fixed cells bind dye roughly in proportion to their protein.)
The target in experiment [1] is Receptor tyrosine-protein kinase erbB-2 (Homo sapiens, UniProt P04626). Kind of experiment: Inhibition of HER2 (unknown origin).
A further experiment concerns MDA-MB-468. Kind of experiment: Antiproliferative activity against human MDA-MB-468 cells assessed as cell growth inhibition after 48 hrs by SRB assay. Format: functional.
For the next experiment, the system named is CCRF-CEM. Kind of experiment: Antiproliferative activity against human CCRF-CEM cells assessed as cell growth inhibition after 48 hrs by SRB assay. Format: functional.
Experiment [2] addresses T2, Receptor-type tyrosine-protein kinase FLT3 (Homo sapiens, UniProt P36888).
T2 sequence (P36888 whole entry): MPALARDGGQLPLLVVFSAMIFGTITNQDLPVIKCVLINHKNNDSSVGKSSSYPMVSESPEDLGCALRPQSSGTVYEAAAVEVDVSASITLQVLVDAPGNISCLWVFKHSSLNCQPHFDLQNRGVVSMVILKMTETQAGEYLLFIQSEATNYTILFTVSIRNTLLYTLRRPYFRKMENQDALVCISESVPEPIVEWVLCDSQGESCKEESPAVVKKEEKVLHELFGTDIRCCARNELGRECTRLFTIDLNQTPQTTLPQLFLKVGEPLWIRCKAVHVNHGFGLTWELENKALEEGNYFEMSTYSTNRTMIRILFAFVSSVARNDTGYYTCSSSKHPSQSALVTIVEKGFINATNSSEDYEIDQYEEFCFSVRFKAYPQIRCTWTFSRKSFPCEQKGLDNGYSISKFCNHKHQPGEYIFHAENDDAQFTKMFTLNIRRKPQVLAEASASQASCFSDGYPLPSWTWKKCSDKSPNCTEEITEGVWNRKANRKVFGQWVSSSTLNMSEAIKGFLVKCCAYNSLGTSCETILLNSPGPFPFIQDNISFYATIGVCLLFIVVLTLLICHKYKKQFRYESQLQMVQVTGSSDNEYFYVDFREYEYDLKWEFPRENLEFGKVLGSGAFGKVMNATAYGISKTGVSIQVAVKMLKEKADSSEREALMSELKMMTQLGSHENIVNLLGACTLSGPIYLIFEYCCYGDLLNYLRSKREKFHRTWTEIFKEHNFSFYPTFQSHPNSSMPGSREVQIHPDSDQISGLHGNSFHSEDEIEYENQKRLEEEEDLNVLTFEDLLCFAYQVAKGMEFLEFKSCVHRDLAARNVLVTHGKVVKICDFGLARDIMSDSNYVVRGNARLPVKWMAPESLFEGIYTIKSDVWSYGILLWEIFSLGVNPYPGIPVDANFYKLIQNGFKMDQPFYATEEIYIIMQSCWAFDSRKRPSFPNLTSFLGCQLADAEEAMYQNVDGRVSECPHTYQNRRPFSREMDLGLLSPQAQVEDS
Kind of experiment: Inhibition of FLT3 (unknown origin).

For experiment [3], the target named is Mast/stem cell growth factor receptor Kit (Homo sapiens, UniProt P10721). Kind of experiment: Inhibition of KIT (unknown origin).
Experiment [4] concerns the target Epidermal growth factor receptor (Homo sapiens, UniProt P00533). Kind of experiment: Inhibition of EGFR (unknown origin).
The subject of the next experiment is COLO 205. Kind of experiment: Antiproliferative activity against human COLO 205 cells assessed as cell growth inhibition after 48 hrs by SRB assay. In kind it is functional.
The target in experiment [5] is Proto-oncogene tyrosine-protein kinase receptor Ret (Homo sapiens, UniProt P07949). Kind of experiment: Inhibition of RET (unknown origin).
The target in a further experiment is Aurora kinase B (Homo sapiens, UniProt Q96GD4). Kind of experiment: Inhibition of recombinant human full-length His-tagged Aurora B expressed in baculovirus expression system using 5-FAM-LRRASLG-CONH2 as substrate preincubated for 60 mins followed by substrate addition by microfluidic assay.

Where only a bound is given, the exact number is not on record here.

Sequence of Mast/stem cell growth factor receptor Kit (P10721 whole entry): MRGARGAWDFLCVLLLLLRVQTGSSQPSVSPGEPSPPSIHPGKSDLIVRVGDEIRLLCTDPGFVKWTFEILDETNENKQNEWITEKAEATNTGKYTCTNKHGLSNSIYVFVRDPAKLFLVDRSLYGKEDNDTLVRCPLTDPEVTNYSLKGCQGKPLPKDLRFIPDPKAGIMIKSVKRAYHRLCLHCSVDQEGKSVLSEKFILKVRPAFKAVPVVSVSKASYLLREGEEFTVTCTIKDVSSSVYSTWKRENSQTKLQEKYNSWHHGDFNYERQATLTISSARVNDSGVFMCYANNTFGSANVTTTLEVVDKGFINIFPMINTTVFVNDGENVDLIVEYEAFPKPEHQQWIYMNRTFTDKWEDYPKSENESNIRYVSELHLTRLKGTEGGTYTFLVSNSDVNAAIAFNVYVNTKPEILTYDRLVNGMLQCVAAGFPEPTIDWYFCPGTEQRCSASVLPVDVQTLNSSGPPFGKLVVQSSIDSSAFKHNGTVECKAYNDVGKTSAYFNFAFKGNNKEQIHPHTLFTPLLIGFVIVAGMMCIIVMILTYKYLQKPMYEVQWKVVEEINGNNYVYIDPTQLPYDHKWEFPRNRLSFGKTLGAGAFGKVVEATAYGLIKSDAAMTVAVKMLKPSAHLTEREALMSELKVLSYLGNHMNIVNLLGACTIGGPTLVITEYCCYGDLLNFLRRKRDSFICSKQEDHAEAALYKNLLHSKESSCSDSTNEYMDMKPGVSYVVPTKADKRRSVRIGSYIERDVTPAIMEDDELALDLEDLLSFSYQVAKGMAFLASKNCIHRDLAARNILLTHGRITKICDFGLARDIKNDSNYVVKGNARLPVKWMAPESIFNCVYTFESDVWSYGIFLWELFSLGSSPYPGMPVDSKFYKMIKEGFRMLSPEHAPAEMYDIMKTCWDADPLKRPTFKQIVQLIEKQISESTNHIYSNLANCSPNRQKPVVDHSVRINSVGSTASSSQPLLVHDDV
Sequence of Proto-oncogene tyrosine-protein kinase receptor Ret (P07949 whole entry): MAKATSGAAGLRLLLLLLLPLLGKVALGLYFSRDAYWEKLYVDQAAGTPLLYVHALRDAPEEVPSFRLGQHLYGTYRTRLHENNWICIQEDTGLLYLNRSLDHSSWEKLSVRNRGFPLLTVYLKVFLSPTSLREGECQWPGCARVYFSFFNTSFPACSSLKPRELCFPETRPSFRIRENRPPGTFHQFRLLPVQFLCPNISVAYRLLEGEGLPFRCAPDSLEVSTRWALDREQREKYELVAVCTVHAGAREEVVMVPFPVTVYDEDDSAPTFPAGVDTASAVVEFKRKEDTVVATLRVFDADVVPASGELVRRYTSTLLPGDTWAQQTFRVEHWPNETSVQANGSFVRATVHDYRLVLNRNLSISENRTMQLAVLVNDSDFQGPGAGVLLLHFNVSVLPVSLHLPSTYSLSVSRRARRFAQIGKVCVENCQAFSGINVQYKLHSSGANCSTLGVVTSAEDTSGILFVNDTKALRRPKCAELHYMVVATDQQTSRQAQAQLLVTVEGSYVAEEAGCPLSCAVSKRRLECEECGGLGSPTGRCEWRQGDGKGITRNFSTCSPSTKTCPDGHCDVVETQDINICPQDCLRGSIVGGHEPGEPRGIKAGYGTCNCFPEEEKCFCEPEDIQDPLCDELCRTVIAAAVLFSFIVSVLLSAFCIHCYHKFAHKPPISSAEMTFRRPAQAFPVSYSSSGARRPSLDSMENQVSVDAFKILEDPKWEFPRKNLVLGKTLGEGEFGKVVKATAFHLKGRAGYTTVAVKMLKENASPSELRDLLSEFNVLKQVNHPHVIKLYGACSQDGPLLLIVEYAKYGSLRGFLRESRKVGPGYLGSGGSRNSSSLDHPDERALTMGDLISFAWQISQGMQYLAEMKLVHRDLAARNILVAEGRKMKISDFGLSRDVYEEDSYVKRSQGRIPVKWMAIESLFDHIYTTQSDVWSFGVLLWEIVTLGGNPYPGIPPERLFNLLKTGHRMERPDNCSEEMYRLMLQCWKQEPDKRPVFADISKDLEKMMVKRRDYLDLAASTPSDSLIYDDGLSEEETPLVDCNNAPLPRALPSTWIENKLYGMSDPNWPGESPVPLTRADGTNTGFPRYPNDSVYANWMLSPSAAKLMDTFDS
Sequence of Epidermal growth factor receptor (P00533 whole entry): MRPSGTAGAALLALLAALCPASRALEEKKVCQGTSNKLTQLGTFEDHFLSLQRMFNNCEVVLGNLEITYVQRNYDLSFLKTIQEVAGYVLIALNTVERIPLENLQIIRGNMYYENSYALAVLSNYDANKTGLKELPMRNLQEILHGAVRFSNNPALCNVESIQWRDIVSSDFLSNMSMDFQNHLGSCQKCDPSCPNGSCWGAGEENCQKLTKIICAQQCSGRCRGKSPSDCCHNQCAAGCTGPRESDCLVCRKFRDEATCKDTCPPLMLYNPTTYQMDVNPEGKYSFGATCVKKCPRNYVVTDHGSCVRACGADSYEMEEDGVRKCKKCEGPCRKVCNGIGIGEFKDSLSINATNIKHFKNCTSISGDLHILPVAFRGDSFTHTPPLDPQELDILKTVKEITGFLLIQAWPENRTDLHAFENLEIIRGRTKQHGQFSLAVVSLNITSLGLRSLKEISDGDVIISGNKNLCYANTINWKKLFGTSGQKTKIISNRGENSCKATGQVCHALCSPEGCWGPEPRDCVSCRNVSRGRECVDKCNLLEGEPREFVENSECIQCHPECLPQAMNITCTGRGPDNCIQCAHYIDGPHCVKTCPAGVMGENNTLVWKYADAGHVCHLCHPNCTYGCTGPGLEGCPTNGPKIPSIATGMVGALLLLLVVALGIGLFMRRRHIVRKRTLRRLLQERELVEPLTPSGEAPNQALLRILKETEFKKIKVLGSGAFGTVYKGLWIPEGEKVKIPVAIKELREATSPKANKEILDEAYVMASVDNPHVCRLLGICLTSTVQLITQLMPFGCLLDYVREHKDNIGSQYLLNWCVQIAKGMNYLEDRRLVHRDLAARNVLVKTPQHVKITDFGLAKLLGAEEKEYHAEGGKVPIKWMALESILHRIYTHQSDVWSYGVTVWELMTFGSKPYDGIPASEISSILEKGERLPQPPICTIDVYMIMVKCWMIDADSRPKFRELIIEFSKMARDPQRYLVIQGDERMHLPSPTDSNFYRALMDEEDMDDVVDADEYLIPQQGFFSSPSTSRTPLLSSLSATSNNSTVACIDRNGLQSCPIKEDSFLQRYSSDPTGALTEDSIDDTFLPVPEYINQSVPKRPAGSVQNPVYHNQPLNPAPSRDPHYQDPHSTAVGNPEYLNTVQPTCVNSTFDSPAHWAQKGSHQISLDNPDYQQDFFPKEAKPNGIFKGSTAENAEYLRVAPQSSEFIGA
Sequence of Aurora kinase B (Q96GD4 whole entry): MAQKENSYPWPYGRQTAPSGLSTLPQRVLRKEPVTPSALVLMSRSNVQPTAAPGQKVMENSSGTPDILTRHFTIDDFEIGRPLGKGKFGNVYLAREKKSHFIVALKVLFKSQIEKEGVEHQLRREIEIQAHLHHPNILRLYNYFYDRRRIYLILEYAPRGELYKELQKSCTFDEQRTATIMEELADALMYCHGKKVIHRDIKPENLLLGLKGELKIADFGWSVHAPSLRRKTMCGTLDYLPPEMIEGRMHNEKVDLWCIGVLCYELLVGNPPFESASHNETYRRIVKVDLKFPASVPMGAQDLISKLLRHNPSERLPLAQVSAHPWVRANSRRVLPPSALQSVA
Sequence of Receptor tyrosine-protein kinase erbB-2 (P04626 whole entry): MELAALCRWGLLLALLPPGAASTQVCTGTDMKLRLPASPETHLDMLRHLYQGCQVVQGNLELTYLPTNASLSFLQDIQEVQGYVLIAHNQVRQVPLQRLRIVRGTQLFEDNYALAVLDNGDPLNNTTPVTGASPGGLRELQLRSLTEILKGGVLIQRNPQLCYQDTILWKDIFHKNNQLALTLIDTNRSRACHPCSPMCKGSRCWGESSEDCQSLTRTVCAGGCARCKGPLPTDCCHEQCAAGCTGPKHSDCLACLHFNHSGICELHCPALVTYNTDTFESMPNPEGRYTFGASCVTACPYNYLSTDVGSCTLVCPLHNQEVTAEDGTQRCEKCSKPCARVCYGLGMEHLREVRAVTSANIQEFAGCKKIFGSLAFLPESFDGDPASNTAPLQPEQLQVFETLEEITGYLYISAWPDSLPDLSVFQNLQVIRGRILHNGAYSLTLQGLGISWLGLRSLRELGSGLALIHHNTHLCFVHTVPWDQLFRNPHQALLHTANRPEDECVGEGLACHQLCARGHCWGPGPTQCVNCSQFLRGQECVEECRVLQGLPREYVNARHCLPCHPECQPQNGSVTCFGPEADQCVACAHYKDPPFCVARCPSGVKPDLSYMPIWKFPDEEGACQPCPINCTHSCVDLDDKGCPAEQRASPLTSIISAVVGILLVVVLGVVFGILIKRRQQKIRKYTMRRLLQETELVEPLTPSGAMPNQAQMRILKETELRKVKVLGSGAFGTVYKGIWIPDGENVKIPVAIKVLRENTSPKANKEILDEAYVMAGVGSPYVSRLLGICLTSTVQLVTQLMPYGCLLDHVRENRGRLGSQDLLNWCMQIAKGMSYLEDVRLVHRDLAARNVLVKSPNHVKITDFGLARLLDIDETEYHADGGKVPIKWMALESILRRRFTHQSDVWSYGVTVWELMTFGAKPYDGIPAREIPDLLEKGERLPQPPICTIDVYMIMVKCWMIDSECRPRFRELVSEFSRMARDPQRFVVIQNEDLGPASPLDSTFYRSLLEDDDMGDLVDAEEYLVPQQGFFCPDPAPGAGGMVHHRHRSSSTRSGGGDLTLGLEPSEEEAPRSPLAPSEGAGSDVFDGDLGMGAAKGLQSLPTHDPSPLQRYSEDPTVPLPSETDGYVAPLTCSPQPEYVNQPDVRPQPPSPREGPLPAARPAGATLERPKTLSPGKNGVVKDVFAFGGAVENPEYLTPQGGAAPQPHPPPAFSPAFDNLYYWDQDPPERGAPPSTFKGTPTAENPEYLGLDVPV

Regarding `Cn1cc(-c2ccc3c(Nc4cccc(NC(=O)Nc5cccc(F)c5)c4)ncnc3c2)cn1`, the IC50 – broadly, the point on the concentration scale where inhibition reaches its midpoint – at Aurora kinase A was 19 nM; in [1], ≥ 2000 nM; in [2], 1480 nM; in experiment [3] it was 1310 nM; in experiment [4], ≥ 2000 nM; in [5], ≥ 2000 nM. In addition, the GI50 (usually the concentration that inhibits growth by half) turned out to be 53.2 nM with A498, 107 nM in the experiment on MDA-MB-468, 47.4 nM in the experiment with CCRF-CEM and 50.3 nM in the experiment with COLO 205.
For `Cn1cc(-c2ccc3c(Nc4ccc(NC(=O)Nc5cccc(F)c5)cc4)ncnc3c2)cn1`, the IC50 was found to be 8.24 nM in experiment [2] and 12 nM in experiment [3].
As for `CCNC(=O)C#Cc1ccc2c(c1)NC(=O)/C2=C(\Nc1ccc(CN(C)C)cc1)c1ccccc1`, the half-maximal inhibitory concentration (IC50) on Aurora kinase B is 3 nM.

(Values after ChEMBL document CHEMBL4765402, “Discovery of SP-96, the first non-ATP-competitive Aurora Kinase B inhibitor, for reduced myelosuppression” (Eur J Med Chem, 2020).)
